Source: US20080275111A1, “Novel Use of Lignan Compounds” (priority 2005, published 2008)

What was measured:
[1] = Toxicity in oral administration; settings: rat, in vivo; oral administration to rats; data not shown; read-out: 50% lethal dose (LD50)
Protocol: The lignan compound of the present invention was tested for toxicity in oral administration to rats, and as a result, it was observed that the 50% lethal dose (LD50) was more than 2,000 mg/kg (Data is not shown).

cell line HT-22 = assay: Brain cell apoptosis induced by glutamate in HT-22 (WST-1); type: cell-based; settings: HT-22, 5 mM glutamate 24 hours, compound 1, 2, 5 and 10 μM
Protocol: A cell line HT-22 derived from the hippocampus was treated with 5 mM glutamate for 24 hours to induce apoptosis. As a control, the cell line HT-22 was not treated with glutamate. Then, the cell line HT-22 was treated with the lignan compound of the present invention at concentrations (1, 2, 5 and 10 μM) for 24 hours. The cell death was analyzed with WST-1(Roche).

[2] = Transmission test to the brain (brain uptake clearance, LC/MS); type: in vivo; settings: male SD rat, 1 mg/kg intravenous
Protocol: PE50 tubes are independently inserted into the femoral vein and femoral artery of a 250 g male SD rat, and syringes individually containing physiological saline solution and heparin (25 I.U.) are connected to tubes, respectively. The macelignan isolated and purified in Example 1 was dissolved in DMSO, and intravenously administered into the rat in the amount of 1 mg/kg. 400 μl of the blood samples were collected from the artery at 0.5, 1, 1.5 and 2 minutes after administration. After last sampling, the head of the rat was rapidly cut, and the brain tissue was extracted and slightly washed with physiological saline solution.
The blood sample prepared in the Example <7-1> was centrifuged at 3,000 rpm for 5 minutes to obtain 100 μl of blood plasma. 500 μl of ethylacetate was added into the blood plasma and the mixture was agitated with a vortex mixer for 10 minutes. Then, the mixture was centrifuged at 3,000 rpm for 5 minutes to obtain 400 μl of the supernatant. […]
The weight of the brain tissue sample prepared in the Example <7-1> was measured, and then saline solution corresponding to the weight of 2 times higher than that of the brain tissue was added into the brain tissue and the mixture was homogenized. […]
The blood sample and brain tissue sample treated in the Example <7-2> were introduced into the LC/MS system, and then the LC/MS analysis was performed according to the method of the Example <7-3> and the area of a macelignan peak was obtained on the chromatograph. The concentration of macelignan was calculated by using the area of the macelignan peak through the standard curve prepared in the Example <7-3>.
In a time-concentration graph of macelignan obtained in the blood sample through the Example <7-4>, AUC0^t (Area Under Curve: AUC) from 0 to the last sample time “tlast”, was obtained with a trapezoidal method (Schaum's Outline of Mathematica, MaGraw-Hill, 2000). Additionally, the amount(Xb) of macelignan was calculated using the concentration of the brain tissue sample. AUC of macelignan may be calculated using the mathematical equation 1. […]

NO = NO production in LPS-activated microglia (Griess reagent); type: cell-based, mouse; settings: 1 μg/ml LPS
Protocol: When the microglia is activated, the expression of NO as a mediator of nerve transmission and immune response is induced (Liu, B. et al., Ann. N.Y. Acad. Sci., 962:318-331, 2002). Therefore, the effect of the lignan compound of the present invention on the NO production in microglia was examined. First, only the neocortex was isolated from the brain of 1 day-old mouse. Then, a microglia-astroglia mixture was prepared according to a method known in the art (Kim, H. Y. et al., J. Immunol., 171:6072-6079, 2003). The microglia-astroglia mixture was then divided at a ratio of 4 flasks/1 head and cultured in MEM medium containing 10% FBS in a 75 cm^2 flask for 2 weeks. The microglia was separated from the cultured cells and cultured in MEM medium containing 5% FBS for 24 hours. The tissue-cultured microglia was inoculated into MEM medium containing 5% FBS at a concentration of 1.5×10^4 cells/well and cultured in a 96-well plate. After 1 day of cultivation, the microglia was treated with 1 μg/ml of LPS (Sigma) to induce activation of the microglia. […] Then, the cell-cultured medium was collected and NO production was measured. The NO production was analyzed by measuring the amount of nitrite as a stable metabolite of NO in the cell-cultured medium using Griess reagent kit (Molecular Probe). […] Then, the absorbance of the resulting solution was measured with a microplate reader at 548 nm.

Compound: COc1cc(C[C@H](C)[C@H](C)Cc2ccc3c(c2)OCO3)ccc1O [macelignan, (8R,8′S)-7-(3,4-methylenedioxyphenyl)-7′-(4-hydroxy-3-methoxyphenyl)-8,8′-dimethylbutane]
- LD50 [1]: > 2000 mg/kg
- brain cell apoptosis induced by glutamate (cell line HT-22): dose-dependently inhibited
- clearance ([2]; brain and plasma, Xb/AUC, read-out: CLuptake (brain uptake clearance)): 0.203 ± 0.039 mL/min
- Xb (amount of macelignan in the brain) ([2]; brain taken after the 2 minute sample): 7.90 ± 1.52 µg
- AUC ([2]; plasma 0 to 2 minutes, trapezoidal method): 648 ng·h/mL
- NO production induced by LPS (NO; compound 2.5 and 10 μM, 16 or 24 hours): dose-dependently inhibited
- inhibition at 10 µM (NO; Mus musculus, 10 μM compound, read-out: inhibition rate of NO production): ~90%
